From patent publication US8633319B2, “7-(1H-pyrazol-4-yl)-1,6-naphthyridine compounds as Syk inhibitors” (Glaxo Group Limited, priority 2010, dated 2014) come the findings set out here.

One data set has as its target T1, hERG (Homo sapiens, UniProt Q12809).
T1 construct: expressed in transfected cells; host or cells: CHO-K1 cells stably expressing human hERG; membrane fraction
Nature of the data set: Cy3B Dofetilide Fluoro-Ligand Binding Assay for hERG. The note with it: membranes of CHO-K1 cells that express hERG, pH 7.4, probe Cy3b-Dofetilide fluoro-ligand, 1.0 nM, hERG-expressing CHO-K1 membranes. On the procedure: Compound potencies were determined by a fluoro-ligand^§ (Cy3b-Dofetilide) fluorescence polarisation assay.
hERG-expressing CHO-K1 membranes* (60 μg/ml) were incubated with 1.0 nM fluoro-ligand^§, in assay buffer (25 mM HEPES, 1.2 mM MgCl2, 100 mM KCl and 0.1% pluronic, pH adjusted to 7.4 using 5M KOH). The final potassium concentration in the assay was 100 mM. After 70 min mixing at room temperature, in the dark, 10 μl was dispensed into each well of a black LV Greiner 384-well plate containing 0.1 μl of test compound in DMSO. The plates were left to equilibrate for 2 h before reading on an Acquest™/Analyst™ imager. pIC50 data were generated using from an 11-point inhibition curve (top assay concentration of 50 μM and a 1:3 step-dilution), a […] curve-fit being applied using ABase and XC50 to analyse data and generate curve fits.
Chinese Hamster Ovary (CHO) cells stably expressing the human hERG receptor were grown to 80% confluency before being harvested by trypsinisation and subsequent centrifugation at 500 g for 10 min. Cell pellets were frozen at −80 C before membrane production. The frozen pellet was thawed on ice, re-suspended and homogenised in 10 volumes of membrane buffer (50 mM HEPES, pH 7.4, 1 mM EDTA, 1 mM PMSF, 2×10^-6M Pepstatin A). The membrane suspension was centrifuged for 20 min at 500 g, the pellet discarded and the supernatent spun again at 48,000 g for 30 min. Following the second centrifugation the remaining pellet containing the membrane fraction was re-suspended in an appropriate volume (4 ml for each ml of frozen cell pellet) and assayed for protein concentration.

The next data set concerns Ramos B cells. Nature of the data set: Ramos pErk Assay. In kind it is cell-based. As to conditions: Homo sapiens, as the hydrochloride salts, anti-IgM stimulated. The protocol: Ramos B cells (human B cells of Burkitt's Lymphoma) are stimulated using anti-IgM. […] The subsequent autophosphorylation of Syk leads to initiation of a signalling cascade resulting in B cell activation via the Erk MAP Kinase pathway. As a result Erk is phosphorylated and following cell lysis is detected by an immune capture assay.
Cells were plated at a density of 2.5×10^5/well in a volume of 25 μl assay medium (RPMI containing 10% heat inactivated foetal calf serum, 1% L-glutamine) in 96 v-well polypropylene plates. 25 μl appropriately diluted compound solution was added and the plate incubated for 30 min at 37° C. with 5% CO2. Cells were stimulated with 5 μl Fab′2 fragments of goat anti-human IgM (5 μg/ml final) for 7 min at 37° C. Cells are lysed by the addition of 55 μL 2×RIPA lysis buffer for 2 h at 4° C. Lysate may be frozen at this point at −80° C.
50 μl cell lysate was transferred to a 96 well MSD plate coated with anti-pErk1/2 (Thr/Tyr:202/204; 185/187) capture antibody and incubated for 16 hours at 4° C. or 3 hours at room temperature. The plate was washed and an anti-pErk detection antibody added (25 μl/well) for 1 hour at room temperature. This was removed, 150 μL MSD read buffer added and the resultant electrochemiluminescence signal measured.
Compound was prepared as a 10 mM stock in DMSO and a dilution series prepared in DMSO using 9 successive 5-fold dilutions. This dilution series was diluted a further 1:100 with assay medium to give the final concentration range to be tested of 5×10^−5 to 2.56×10^−11M. Compound dilutions were prepared using the Biomek 2000 and Biomek Nx automated robotic pipetting systems.

[1] abbreviates: as the free base, read-out: average IC50.
The mark [2] stands for this setting: form not stated (first list), read-out: average pIC50 (converted).
Where [3] appears, read: hydrochloric acid salts, read-out: average IC50.
[4] abbreviates: hydrochloric acid salts, read-out: average pIC50 (converted).

Structures are written as SMILES. Where two headings read alike, the source gives them in different places.

T1 sequence (Q12809 whole entry): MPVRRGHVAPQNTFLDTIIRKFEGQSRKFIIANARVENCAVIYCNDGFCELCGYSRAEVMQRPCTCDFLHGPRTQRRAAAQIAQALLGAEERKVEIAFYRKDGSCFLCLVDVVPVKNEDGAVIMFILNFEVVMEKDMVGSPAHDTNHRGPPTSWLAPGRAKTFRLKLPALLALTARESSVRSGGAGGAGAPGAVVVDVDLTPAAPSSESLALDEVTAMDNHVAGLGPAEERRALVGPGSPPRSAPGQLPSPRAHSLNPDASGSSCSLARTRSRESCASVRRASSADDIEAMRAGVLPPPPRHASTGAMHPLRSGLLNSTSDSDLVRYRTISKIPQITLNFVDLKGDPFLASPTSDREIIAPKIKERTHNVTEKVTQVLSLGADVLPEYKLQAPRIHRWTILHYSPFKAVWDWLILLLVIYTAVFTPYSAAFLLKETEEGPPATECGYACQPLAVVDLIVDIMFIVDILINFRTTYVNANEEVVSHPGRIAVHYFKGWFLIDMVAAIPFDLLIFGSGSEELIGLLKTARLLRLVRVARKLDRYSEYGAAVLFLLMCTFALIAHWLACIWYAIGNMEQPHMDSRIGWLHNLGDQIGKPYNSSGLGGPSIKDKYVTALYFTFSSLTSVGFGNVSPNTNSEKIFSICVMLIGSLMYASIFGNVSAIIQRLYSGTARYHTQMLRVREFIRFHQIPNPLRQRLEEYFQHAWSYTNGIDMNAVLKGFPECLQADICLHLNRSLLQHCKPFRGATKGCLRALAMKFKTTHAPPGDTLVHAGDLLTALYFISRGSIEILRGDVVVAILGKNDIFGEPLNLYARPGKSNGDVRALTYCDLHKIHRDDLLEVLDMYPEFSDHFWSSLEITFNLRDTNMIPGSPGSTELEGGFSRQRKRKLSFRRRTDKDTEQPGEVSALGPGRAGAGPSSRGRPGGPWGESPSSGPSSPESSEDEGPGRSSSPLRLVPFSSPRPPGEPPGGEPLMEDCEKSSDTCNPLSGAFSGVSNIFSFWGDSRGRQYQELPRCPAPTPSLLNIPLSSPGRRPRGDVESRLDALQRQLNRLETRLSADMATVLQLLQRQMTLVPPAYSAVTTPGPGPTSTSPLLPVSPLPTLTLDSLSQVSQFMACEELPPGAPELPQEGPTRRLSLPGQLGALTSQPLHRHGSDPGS

On to `CCn1cc(-c2cc3ncccc3c(NC[C@]3(F)CCCNC3)n2)cn1` [Example 1, 7-(1-Ethyl-1H-pyrazol-4-yl)-N-{[(3S)-3-fluoro-3-piperidinyl]methyl}-1,6-naphthyridin-5-amine], for which the IC50 at 2 h at hERG (setting [1]) was more than 10 µM; on hERG (setting [2]), more than 10 µM; at hERG (setting [3]), more than 20 µM; at hERG (setting [4]) it was more than 10 µM. Further, the IC50 with Ramos B cells is less than 1 µM.

For the compound `CC(C)(C)n1cc(-c2cc3ncccc3c(NC[C@]3(F)CCCNC3)n2)cn1` [Example 2, 7-[1-(1,1-Dimethylethyl)-1H-pyrazol-4-yl]-N-{[(3S)-3-fluoro-3-piperidinyl]methyl}-1,6-naphthyridin-5-amine], the IC50 at 2 h is more than 10 µM at hERG (setting [1]), more than 10 µM at hERG (setting [2]), more than 20 µM at hERG (setting [3]) and more than 10 µM on hERG (setting [4]). Besides, the IC50 in the data set with Ramos B cells is less than 1 µM.

On to `CCn1cc(-c2cc3ncccc3c(OC[C@]3(F)CCCNC3)n2)cn1` [Example 4, 7-(1-Ethyl-1H-pyrazol-4-yl)-5-({[(3S)-3-fluoro-3-piperidinyl]methyl}oxy)-1,6-naphthyridine], for which the IC50 at 2 h on hERG (setting [1]) is more than 10 µM; at hERG (setting [2]), more than 10 µM; at hERG (setting [3]), more than 20 µM; on hERG (setting [4]) it was more than 10 µM. In addition, the IC50 with Ramos B cells is less than 1 µM.

As to `COCn1cc(-c2cc3ncccc3c(NC[C@]3(F)CCCNC3)n2)cn1` [Example 3, N-{[(3S)-3-Fluoro-3-piperidinyl]methyl}-7-{1-[(methyloxy)methyl]-1H-pyrazol-4-yl}-1,6-naphthyridin-5-amine], the IC50 at 2 h at hERG (setting [1]) was more than 10 µM; at hERG (setting [2]), more than 10 µM; at hERG (setting [3]) it was more than 20 µM; on hERG (setting [4]), more than 10 µM. Besides, the IC50 with Ramos B cells is less than 1 µM.
